Measurements as given in publication PMC6522510 (Nature Communications, 2019).
pEC50, pIC50: −log10 of the molar value. Like-named read-outs stand apart in the source and are kept apart here.

Legend:
CMK = assay: cells; design: species or system AML cell lines (8); Secondary HTS, 10-point dose-response in triplicate, Cell Titer Glo viability, four-parameter fit EC50; settings: Homo sapiens, CMK, 72 h, read-out: CMK
MV4-11 = format: cell-based; settings: Homo sapiens, 72 h, Cell Titer Glo
AML cell lines [1] = assay: Nuclear accumulation of [3H]-labelled drug; format: cell-based, human; settings: 2 h, 1 µM
[2] = tested on: CBFA2T3-GLIS2/JAK2V617F-induced AMKL model; assay: In vivo efficacy, survival; design: species or system mice; settings: CBFA2T3-GLIS2/JAK2V617F-Luc+ quaternary transplants, i.p.
M07e = assay: Secondary dose-response HTS, Cell Titer Glo; format: cell-based, human; settings: Homo sapiens, M-07e
[3] = tested on: AMKL patient-derived xenograft; assay: In vivo efficacy, survival; design: species or system NSG-SGM3 mice; settings: AMKL PDX, 50 mg kg−1 q4d, i.p.
[4] = In vivo tolerability / maximum tolerated dose; design: species or system mice
Protocol: Next, we sought to compare the in vivo efficacy of gemcitabine and cabazitaxel to the standard of care, cytarabine. Due to limitations with tolerability, we have previously treated our AML xenograft models with low-dose cytarabine[13],[31]. […] Tolerability studies of gemcitabine at the same dose and schedule was not tolerated. […] Similarly, we performed tolerability of cabazitaxel using multiple doses on an intermittent every 3 or 4-day schedule; the only tolerable dose was 5 mg/kg.
All animal studies were performed in accordance with Animal Care and Use Programs under protocols approved by the Institutional Animal Care and Use Committee at OSU. We have complied with the relevant ethical considerations for animal research overseen by this committee. Mice were housed in a barrier facility. Non-tumor bearing Ly5.2 C57Bl/6 (BoyJ) mice were treated with 100, 120, or 140 mg kg^−1 gemcitabine on an intermittent schedule every 3 days for 3 weeks; 3 or 6 mg kg^−1 doses were used to evaluate daily for 5 days schedule. All doses were administered by intraperitoneal injection; tolerability was assessed by daily weights and observation of changes in body condition.
Supplementary Figure 12. Establish maximum tolerated dose of gemcitabine. Non-tumor bearing female BoyJ mice were treated on an intermittent schedule every 3 days for 3 weeks with 100, 120, or 140 m gkg-1 gemcitabine (Gem ) or treated on a daily schedule once a day for 5 days with 3 or 6 m gkg-1 Gem. Daily weight of treated mice; data reported as a percent weight loss from day 0. Arrow indicate treatment days.

[5] = tested on: MLLr primary AML blast samples; assay: Ex vivo drug treatment of primary AML blasts on mesenchymal stromal cells; format: cell-based; settings: Homo sapiens; primary blasts on MSC, 96 h, range over patient samples
MOLM-13 = assay: Secondary dose-response HTS, Cell Titer Glo; format: cell-based, human; settings: Homo sapiens, MOLM-13
AML cell lines [6] = settings: human, 5 min, 1 µM

With `Nc1ccn([C@@H]2O[C@H](CO)[C@@H](O)C2(F)F)c(=O)n1` [Gemcitabine, gemcitabine] the pEC50 (CMK) was 8.08, the pIC50 (MV4-11) was 8.49 and the “nuclear accumulation, gemcitabine compared to cytarabine” value (AML cell lines [1]) was 5–19.8 fold. For the same molecule, the Median survival ([2]; 3 mg kg−1 daily x 5 days) was 91 days, the Median survival ([2]; 120 mg kg−1 q3d) was greater than 125 days and the pEC50 (M07e; secondary HTS, 72 h, average of triplicate, read-out: EC50 M07e) was 7.22. For the same molecule, the pEC50 (M07e; secondary high-throughput screen, M07e, read-out: average effective concentration, M07e) was 7.21, the Median survival [3] was 76 days and the MTD at 5 days ([4]; female, Ly5.2 C57Bl/6 (BoyJ), mouse, in vivo, ip, immunocompetent (BoyJ) mice, daily for 5 days, i.p., read-out: MTD, daily administration) was 3 mg/kg. The “MTD, intermittent administration” value ([4]; immunocompetent (BoyJ) mice, q3d for 3 weeks, i.p.) was 120 mg/kg, the tolerability ([4]; mouse, in vivo) was “not tolerated” and the pIC50 [5] was 5.37 to 6.57. For the same molecule, the pEC50 (MOLM-13; secondary HTS, 72 h, average of triplicate, read-out: EC50 MOLM-13) was 8.52, the pEC50 (MOLM-13; secondary high-throughput screen, read-out: average effective concentration, MOLM-13) was 8.56 and the “intracellular uptake, gemcitabine relative to cytarabine” value (AML cell lines [6]) was 1.2–3.6 fold.
